Source: patent US11242327B2, “Analgesic compounds” (RECURIUM IP HOLDINGS, LLC, priority 2017, dated 2022)
Where a name gives a salt, the structure may show the parent alone.

What was measured:
male Sprague-Dawley rats [1] = assay: UVB Inflammatory Pain Test (thermal hyperalgesia); assay type: in vivo; conditions: rat, oral, 300 mg/kg
Protocol: UVB irradiation to the surface of the hind paw was used to induce cutaneous inflammatory pain in non-fasted male Sprague-Dawley rats weighing 175-300 g. On Day −3, animals were restrained and the plantar surface of the left hind paw was exposed to 350 mJoules/cm^2 of UVB irradiation using a narrow band UVB light source (Daavlin®, Bryan, Ohio). Following UVB irradiation, animals were returned to their home cage. Thermal hyperalgesia was assessed prior to dosing and approximately 1, 2, and 4 hours after dosing on Day 0 using a radiant heat plantar test apparatus (IITC Life Sciences©; Woodland Hills, Calif.). Animals were placed in individual acrylic chambers on a glass platform warmed to 30±2° C. and allowed to acclimate to their surroundings for a minimum of 15 minutes before testing. The stimulus was presented to the plantar surface and the timer was activated. The stimulus intensity was set such that pre-injury paw withdrawal latencies were approximately 12-18 seconds. Paw withdrawal latency values were recorded at the first observed nocifensive behavior (paw withdrawal, flinching, biting and/or licking). Three paw withdrawal latencies were measured for each hind paw per time point. The mean of the 3 values was taken as the paw withdrawal latency for that time point. A maximum cutoff latency of 30 seconds was used to prevent injury to the animal. The mean and standard error of the mean (SEM) were determined for each paw for each treatment group at each time point. Test compounds were administered orally at concentrations of 3, 10, 30 or 100 mg/kg; celecoxib was administered orally at a concentration of 30 mg/kg; and acetaminophen was administered orally at a concentration of 300 mg/kg. The control group received the vehicle (sterile water). In Table 4, ‘A’ designates >8 seconds of paw withdrawal latency, ‘B’ designates >6 and <8 seconds of paw withdrawal latency, and ‘C’ designates <6 seconds of paw withdrawal latency.
The results provided in Table 4 are for oral administration in rats. […] Furthermore, while acetaminophen was dosed at 300 mg/kg, compounds of Formulae (Ie), (Ih) and (Ik), or a pharmaceutically acceptable salt of any of the foregoing, were dosed at 3 mg/kg, 10 mg/kg and 100 mg/kg.

COX-1 = COX-1 (Homo sapiens, UniProt P23219); assay: NSAIDS and Opioid Receptor Test: COX-1; assay type: biochemical
Protocol: (§1) Compounds were screened as DMSO solutions at 10 μM, 100 μM, or 200 μM and values represent percent inhibition of control-specific binding. […] As NSAID and opioid mechanisms of action are precluded, a person of ordinary skill in the art understands that undesirable side effects associated with inhibition of COX receptors in NSAIDs and activation of opiate receptors in opioids can be avoided by compounds described herein. Furthermore, opioids are known to lose their analgesic potency after to continued administration. (See Benyamin, et al. “Opioid Complications and Side Effects” Pain Physician 11 (2008): S105-S120). As the data indicates compounds described herein have a different mechanism action compared to opioids, a person of ordinary skill in the art would appreciate that compounds described herein would not be expected to lose their analgesic potency like opioids after continued admininistration.

COX-2 = target: T1, COX-2 (Homo sapiens, UniProt P35354); assay: NSAIDS and Opioid Receptor Test: COX-2; assay type: biochemical
T1 sequence (P35354 18-604): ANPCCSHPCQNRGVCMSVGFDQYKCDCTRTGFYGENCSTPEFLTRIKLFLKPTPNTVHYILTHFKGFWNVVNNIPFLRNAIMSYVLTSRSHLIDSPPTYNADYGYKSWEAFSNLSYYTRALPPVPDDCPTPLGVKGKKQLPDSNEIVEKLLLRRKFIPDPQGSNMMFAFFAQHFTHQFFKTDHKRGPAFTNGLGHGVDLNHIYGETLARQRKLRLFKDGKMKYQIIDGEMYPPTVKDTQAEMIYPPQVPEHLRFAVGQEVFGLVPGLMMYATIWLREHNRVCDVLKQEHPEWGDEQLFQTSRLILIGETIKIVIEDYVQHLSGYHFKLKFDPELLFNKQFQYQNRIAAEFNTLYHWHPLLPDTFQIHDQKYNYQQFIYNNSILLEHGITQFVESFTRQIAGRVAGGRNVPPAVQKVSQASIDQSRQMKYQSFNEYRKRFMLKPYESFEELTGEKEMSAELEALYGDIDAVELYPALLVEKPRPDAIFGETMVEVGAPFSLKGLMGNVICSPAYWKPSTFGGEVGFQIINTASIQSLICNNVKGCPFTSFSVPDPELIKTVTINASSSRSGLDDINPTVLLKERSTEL
Protocol: as §1

Opiate δ1 = Opiate δ1 (Homo sapiens, UniProt P41143); assay: NSAIDS and Opioid Receptor Test: Opiate δ1; assay type: binding
Protocol: as §1

Opiate κ = Opiate κ (Homo sapiens, UniProt P41145); assay: NSAIDS and Opioid Receptor Test: Opiate κ; assay type: binding
Protocol: as §1

Opiate μ = Opiate μ (Homo sapiens, UniProt P35372); assay: NSAIDS and Opioid Receptor Test: Opiate μ; assay type: binding
Protocol: as §1

adult male C57BL/6 mice = assay: Conditioned Place Preference (Abuse) Test; assay type: in vivo, mouse
Excerpt: A conditioned place preference (CPP) model was used to assess the reward properties of compounds of formulae (Ie), or a pharmaceutically acceptable salt of any of the foregoing, in adult male C57BL/6 mice. The CPP model apparatus consisted of a Plexiglas© test unit having three (A, B, C) compartments (9 cm×9 cm×16 cm) configured to allow access to all chambers. Compartments A and C had textually distinct flooring and wall marking. Mice were placed in the middle compartment with free access to the other compartments. On day 1 and 2, the “naive chamber preference” was assessed by placing the animal in the middle chamber twice a day (AM and PM) for 30 min on two consecutive days, with the chamber showing the greatest residence time being called the “preferred chamber”. On “drug pairing days” (days 5, 6, 7 and 8) mice were injected IP with vehicle (50 mM citric acid) in the AM in the preferred chamber and the drug/vehicle in the afternoon in the non-preferred chamber for four consecutive days. On the morning of day 9 (the day after the last drug pairing), the “drug chamber preference” was assessed by placing the mouse (absent any injection) in the middle chamber, with free access to all chambers for 30 minutes. This was repeated five days later (day fourteen), with no intervening drug treatment.
The time spent on days 9 and 14 (e.g. […] respectively after the last drug treatment) in the drug associated chamber was the test datum and is represented in FIG. 1. […] In contrast, there was no increase in the non-preferred chamber residence time when the least-preferred chamber was paired with saline, APAP or test compounds 2 or 28 on either days 9 or 14, or days 0 or 5.

male Sprague-Dawley rats [2] = assay: Formalin Paw Test, rat, oral; assay type: in vivo; conditions: 30 mg/kg
Protocol: (§2) One test compound or the vehicle was administered to each rat or mouse in each test group (8 rats or mice per group). Non-fasted male Sprague-Dawley rats weighing 200-225 g or non-fasted male ICR mice weighing 23±3 g were used. […] Responses were measured every 5 minutes after the formalin injection for 35 minutes. The results in Table 2 are for oral administration in rat and the results in Table 3 are for intraperitoneal administration in mouse. In Tables 2 and 3, 'A' designates <70 seconds of paw licking, 'B' designates >70 and <165 seconds of paw licking, and 'C' designates >165 seconds of paw licking.

Opiate δ2 = Opiate δ2 (Homo sapiens, UniProt P41143); assay: NSAIDS and Opioid Receptor Test: Opiate δ2; assay type: binding
Protocol: as §1

[3] = Bioavailability Test (rat pharmacokinetics); assay type: in vivo
Protocol: Oral bioavailability of compounds of Formulae (Ie), (Ih), (Ik), and (Ir), or a pharmaceutically acceptable salt of any of the foregoing, were evaluated in fasted male Sprague-Dawley (SD) rats weighing 200-225g. Compounds were dosed at 3 mg/kg (IV) and 30 mg/kg (PO). Unless otherwise noted, compounds were dissolved in 0.9% saline for IV dosing and 100% sterile water for PO dosing. Pharmacokinetic parameters were determined using Phoenix WinNonlin (v7.0). […]

male ICR mice = assay: Formalin Paw Test, mouse, intraperitoneal; assay type: in vivo; conditions: 60 mg/kg; for Early Phase, seconds of paw licking: early/acute phase (0-10 minutes); for Late Phase, seconds of paw licking: late/tonic phase (10-35 minutes)
Protocol: as §2

male Sprague-Dawley rats [4] = assay: Post-Incisional (Brennan) Pain Test; assay type: in vivo; conditions: rat, oral; for cumulative pain score, 4 h: 4 h post-dosing; for cumulative pain score, 24 h: 24 h post-dosing
Protocol: Incisional pain was induced in non-fasted male Sprague-Dawley rats weighing 180-300 g by making a 1-cm plantar incision in the left hind paw and is designed to mimic pain and sensitivity similar to what is reported by patients after surgery. Dosing occurred at the time of incision and spontaneous pain was measured 4 and 24 hours post-dosing using a cumulative pain score. The unrestrained animals were placed on a metal mesh platform and allowed to acclimate for about 15 min/ Each animal was closely observed during a 1-min period repeated every 5 min for 1 h (12 times total). Depending on the position in which the foot was found during the scoring period, a score of 0, 1, or 2 was given. Full weight bearing of the foot (score=0) was present if the skin on the plantar surface of the paw wound was blanched or distorted by the mesh. If the foot was completely off the mesh, or one or more instances of licking or flinching was observed, a score of 2 was recorded and the licking or flinching was noted but not counted. If the plantar surface of the paw touched the mesh without blanching or distorting, a score of 1 was given. The sum of the 12 scores obtained during the 1 h session was calculated (maximum score=24) for each animal. Observations were made during hours 4 and 24. Test articles were administered orally at concentrations of 10, 30 or 100 mg/kg and ketoprofen was administered subcutaneously at a concentration of 10 mg/kg. The control group received the vehicle (sterile water). In Table 6, ‘A’ designates a cumulative pain score of ≤11, ‘B’ designates >11 and ≤16, and ‘C’ designates >16.
The results provided in Table 6 are for oral administration in rats.

[5] = male, Sprague-Dawley, in vivo, IV 3 mg/kg, 0.9% saline
[6] = male, Sprague-Dawley, in vivo, PO 30 mg/kg, sterile water

Opiate κ, sequence (P41145 whole entry): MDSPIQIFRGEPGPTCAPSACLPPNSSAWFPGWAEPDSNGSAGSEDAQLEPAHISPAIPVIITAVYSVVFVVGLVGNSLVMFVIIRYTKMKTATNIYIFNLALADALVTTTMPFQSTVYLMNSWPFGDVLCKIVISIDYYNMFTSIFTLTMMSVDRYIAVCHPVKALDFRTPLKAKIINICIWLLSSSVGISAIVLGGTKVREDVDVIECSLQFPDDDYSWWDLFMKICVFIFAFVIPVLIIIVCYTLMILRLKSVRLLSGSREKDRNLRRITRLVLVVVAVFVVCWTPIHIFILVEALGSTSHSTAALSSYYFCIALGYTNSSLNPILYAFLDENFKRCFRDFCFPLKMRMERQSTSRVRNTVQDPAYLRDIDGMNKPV
Opiate μ, sequence (P35372 whole entry): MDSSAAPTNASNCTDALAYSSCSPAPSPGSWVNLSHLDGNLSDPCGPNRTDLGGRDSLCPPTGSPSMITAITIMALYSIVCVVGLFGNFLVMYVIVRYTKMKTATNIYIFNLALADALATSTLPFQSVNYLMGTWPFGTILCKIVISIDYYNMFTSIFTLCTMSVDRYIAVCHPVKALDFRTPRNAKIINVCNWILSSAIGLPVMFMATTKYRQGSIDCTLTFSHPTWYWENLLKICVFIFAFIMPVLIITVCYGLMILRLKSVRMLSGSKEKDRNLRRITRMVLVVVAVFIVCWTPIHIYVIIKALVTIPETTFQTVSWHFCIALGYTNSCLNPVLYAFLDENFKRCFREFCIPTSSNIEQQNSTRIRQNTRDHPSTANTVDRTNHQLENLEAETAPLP
COX-1, sequence (P23219 24-599): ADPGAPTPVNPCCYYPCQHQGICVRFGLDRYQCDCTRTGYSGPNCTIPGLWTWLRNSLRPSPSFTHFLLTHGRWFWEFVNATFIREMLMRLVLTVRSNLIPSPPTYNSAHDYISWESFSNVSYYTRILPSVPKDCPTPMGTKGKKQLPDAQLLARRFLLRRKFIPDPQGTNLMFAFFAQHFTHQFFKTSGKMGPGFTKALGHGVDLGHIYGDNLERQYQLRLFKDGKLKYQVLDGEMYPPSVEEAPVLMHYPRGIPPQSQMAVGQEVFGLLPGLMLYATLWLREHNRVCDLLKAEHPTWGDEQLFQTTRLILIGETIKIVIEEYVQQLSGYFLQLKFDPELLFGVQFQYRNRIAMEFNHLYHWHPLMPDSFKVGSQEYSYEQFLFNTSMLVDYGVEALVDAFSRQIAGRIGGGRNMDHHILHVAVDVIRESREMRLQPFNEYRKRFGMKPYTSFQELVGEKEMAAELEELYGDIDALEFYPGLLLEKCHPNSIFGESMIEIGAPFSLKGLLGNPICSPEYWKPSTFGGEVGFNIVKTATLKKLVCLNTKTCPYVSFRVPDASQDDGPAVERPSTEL
Opiate δ2, sequence (P41143 whole entry): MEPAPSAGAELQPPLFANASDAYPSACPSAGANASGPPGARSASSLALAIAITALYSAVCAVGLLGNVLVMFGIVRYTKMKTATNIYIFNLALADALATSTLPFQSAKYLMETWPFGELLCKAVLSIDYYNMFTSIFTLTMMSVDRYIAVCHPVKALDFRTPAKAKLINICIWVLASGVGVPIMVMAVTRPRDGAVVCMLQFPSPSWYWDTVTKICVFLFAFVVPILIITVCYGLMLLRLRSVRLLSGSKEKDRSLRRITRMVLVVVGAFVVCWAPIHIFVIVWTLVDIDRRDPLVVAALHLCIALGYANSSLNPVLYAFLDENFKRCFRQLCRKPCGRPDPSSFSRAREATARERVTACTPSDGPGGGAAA
Opiate δ1, sequence (P41143 whole entry): as above

Structure (SMILES): CC(=O)Nc1ccc(O)cc1 [Acetaminophen, reference compound]
- paw withdrawal latency, 1 h (male Sprague-Dawley rats [1]; 1 h after dosing): A (>8 seconds of paw withdrawal latency)
- paw withdrawal latency, 2 h (male Sprague-Dawley rats [1]; 2 h after dosing): A (>8 seconds of paw withdrawal latency)
- paw withdrawal latency, 4 h (male Sprague-Dawley rats [1]; 4 h after dosing): A (>8 seconds of paw withdrawal latency)
- inhibition at 10 µM (COX-1; read-out: % Inhibition, COX-1 (human)): -7%
- inhibition at 10 µM (COX-2; read-out: % Inhibition, COX-2 (human)): 3%
- inhibition at 10 µM (Opiate δ1): 2%
- inhibition at 10 µM (Opiate κ; 10 μM): -1%
- inhibition at 10 µM (Opiate μ; 10 μM): -5%
- least preferred (drug associated) chamber residence time (adult male C57BL/6 mice; mouse, in vivo, ip): no increase

Structure (SMILES): Cl.NC12CC(c3cccc(C(F)(F)F)n3)(C1)C2 [Compound 13, 3-(6-(Trifluoromethyl)pyridin-2-yl)bicyclo[1.1.1]pentan-1-amine hydrochloride]
- Early Phase, seconds of paw licking (male Sprague-Dawley rats [2]; early/acute phase (0-10 minutes)): A (<70 seconds of paw licking)
- Late Phase, seconds of paw licking (male Sprague-Dawley rats [2]; late/tonic phase (10-35 minutes)): A (<70 seconds of paw licking)
- inhibition at 200 µM (COX-1; 200 μM): 6%
- inhibition at 200 µM (COX-2; 200 μM): 8%
- inhibition at 200 µM (Opiate δ2; 200 μM): 6%
- inhibition at 200 µM (Opiate κ; 200 μM): 33%
- inhibition at 200 µM (Opiate μ; 200 μM): 56%
- F ([3]; PO 30 mg/kg vs IV 3 mg/kg): 16%
- AUC(0-inf) [3, 5]: 3 µM·h
- clearance [3, 5]: 73 mL/min/kg
- half-life [3, 5]: 9.5 h
- Vd ([3]; male, Sprague-Dawley, in vivo, IV 3 mg/kg, 0.9% saline, read-out: Vdss): 20.2 L/kg
- AUC(0-inf) [3, 6]: 35 µM·h
- Cmax [3, 6]: 11 µM
- Tmax [3, 6]: 0.6 h
- half-life [3, 6]: 6.8 h

Structure (SMILES): CC(C)[C@H](N)C(=O)NC12CC(C(F)(F)F)(C1)C2 [Compound 23, (S)-2-Amino-3-methyl-N-(3-(trifluoromethyl)bicyclo[1.1.1]pentan-1-yl)butanamide hydrochloride]
- Early Phase, seconds of paw licking (male ICR mice): A (<70 seconds of paw licking)
- Late Phase, seconds of paw licking (male ICR mice): C (>165 seconds of paw licking)

Structure (SMILES): CCOC(=O)NC12CC(C(F)(F)F)(C1)C2 [Compound 24, Ethyl (3-(trifluoromethyl)bicyclo[1.1.1]pentan-1-yl)carbamate]
- Early Phase, seconds of paw licking (male ICR mice): A (<70 seconds of paw licking)
- Late Phase, seconds of paw licking (male ICR mice): B (>70 and <165 seconds of paw licking)

Structure (SMILES): NC12CC(C(F)(F)F)(C1)C2 [Compound 28, 3-(trifluoromethyl)bicyclo[1.1.1]pentan-1-amine hydrochloride]
- cumulative pain score, 4 h (male Sprague-Dawley rats [4]; 10 mg/kg): C (>16)
- cumulative pain score, 24 h (male Sprague-Dawley rats [4]; 10 mg/kg): C (>16)
- cumulative pain score, 4 h (male Sprague-Dawley rats [4]; 30 mg/kg): B (>11 and ≤16)
- cumulative pain score, 24 h (male Sprague-Dawley rats [4]; 30 mg/kg): B (>11 and ≤16)
- cumulative pain score, 4 h (male Sprague-Dawley rats [4]; 100 mg/kg): B (>11 and ≤16)
- cumulative pain score, 24 h (male Sprague-Dawley rats [4]; 100 mg/kg): A (a cumulative pain score of ≤11)
- inhibition at 100 µM (Opiate δ2; 100 μM): 2%
- inhibition at 100 µM (Opiate κ; 100 μM): 1%
- inhibition at 100 µM (Opiate μ; 100 μM): 3%
- least preferred (drug associated) chamber residence time (adult male C57BL/6 mice; mouse, in vivo, ip): no increase

Structure (SMILES): CN1CC[C@]23c4c5ccc(O)c4O[C@H]2[C@@H](O)C=C[C@H]3[C@H]1C5 [morphine, reference compound]
- least preferred (drug associated) chamber residence time (adult male C57BL/6 mice; mice, IP, drug pairing 4 consecutive days, assessed on day 9): significant increase
- least preferred (drug associated) chamber residence time (adult male C57BL/6 mice; mice, IP, drug pairing 4 consecutive days, assessed on day 14): significant increase
